Columns and labels:
Format in all cases: in vivo
[1] = test system: ivy-leaved morning glory (Ipomoea hederacea); experiment: Test G Pre-Emergence Protocol; details: Ipomoea, pre-emergence, 312 h, evaluated after 13 days
Summary of the method: (§1)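 Pre-emergence spray, 15.625/62.5/250 g/ha, vehicle acetone:water 50:50 + 0.5% Tween 20, applied 1 d after sowing. Glasshouse 24/16° C, 14 h light, 65% RH, watered twice daily. Visual damage rating at 13 d, 0–100 scale.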

[2] = test system: redroot pigweed (Amaranthus retroflexus); experiment: Test G Pre-Emergence Protocol; details: Amaranthus retroflexus, pre-emergence, 312 h, evaluated after 13 days
Summary of the method: as §1

[3] = test system: velvetleaf (Abutilon theophrasti); experiment: Test G Pre-Emergence Protocol; details: Abutilon theophrasti, pre-emergence, 312 h, evaluated after 13 days
Summary of the method: as §1

[4] = test system: barnyardgrass (Echinochloa crus-galli); experiment: Test G Pre-Emergence Protocol; details: Echinochloa crus-galli, pre-emergence, 312 h, evaluated after 13 days
Summary of the method: as §1

[5] = test system: giant foxtail (Setaria faberi); experiment: Test G Pre-Emergence Protocol; details: Setaria faberi, pre-emergence, 312 h, evaluated after 13 days
Summary of the method: as §1

corn (Zea mays) [6] = experiment: Test G Pre-Emergence Protocol; details: Zea mays, pre-emergence, 312 h, evaluated after 13 days
Summary of the method: as §1

[7] = test system: ivy-leaved morning glory (Ipomoea hederacea); experiment: Test G Post-Emergence Protocol; details: Ipomoea, post-emergence, 312 h
Summary of the method: (§2)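 Foliar application was made 8 days after sowing, using an aqueous spray of the active in acetone/water (50:50) with 0.5% Tween 20, at doses of 15.625, 62.5 or 250 g/ha. Injury was assessed 13 days later, where 100 meant the plant was fully damaged.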

[8] = test system: redroot pigweed (Amaranthus retroflexus); experiment: Test G Post-Emergence Protocol; details: Amaranthus retroflexus, post-emergence, 312 h
Summary of the method: as §2

[9] = test system: velvetleaf (Abutilon theophrasti); experiment: Test G Post-Emergence Protocol; details: Abutilon theophrasti, post-emergence, 312 h
Summary of the method: as §2

[10] = test system: barnyardgrass (Echinochloa crus-galli); experiment: Test G Post-Emergence Protocol; details: Echinochloa crus-galli, post-emergence, 312 h
Summary of the method: as §2

[11] = test system: giant foxtail (Setaria faberi); experiment: Test G Post-Emergence Protocol; details: Setaria faberi, post-emergence, 312 h
Summary of the method: as §2

corn (Zea mays) [12] = experiment: Test G Post-Emergence Protocol; details: Zea mays, post-emergence, 312 h
Summary of the method: as §2

CC(C)c1cc([C@H]2CN(C)C(=O)[C@@H]2C(=O)Nc2cccc(F)c2F)cnn1 (racemic) [Compound 1488]
pest or weed control at 15.625 g/ha ([1]; 15.625 g ai/ha, read-out: Morning-glory, Ivy-leaved damage rating (100=total damage to plant; 0=no damage to plant)): 0% | pest or weed control at 62.5 g/ha ([1]; 62.5 g ai/ha, 100=total damage to plant, 0=no damage to plant, read-out: plant damage rating, Morningglory, Ivy-leaved): 0% | pest or weed control at 250 g/ha ([1]; 250 g ai/ha, read-out: Morningglory, Ivy-leaved damage rating (100=total damage to plant; 0=no damage to plant)): 0% | pest or weed control at 15.625 g/ha ([2]; 15.625 g ai/ha, read-out: Pigweed, Redroot damage rating (100=total damage to plant; 0=no damage to plant)): 0% | pest or weed control at 62.5 g/ha ([2]; 62.5 g ai/ha, 100=total damage to plant, 0=no damage to plant, read-out: plant damage rating, Pigweed, Redroot): 0% | pest or weed control at 250 g/ha ([2]; 250 g ai/ha, read-out: Pigweed, Redroot damage rating (100=total damage to plant; 0=no damage to plant)): 0% | pest or weed control at 15.625 g/ha ([3]; 15.625 g ai/ha, read-out: Velvetleaf damage rating (100=total damage to plant; 0=no damage to plant)): 0% | pest or weed control at 62.5 g/ha ([3]; 62.5 g ai/ha, 100=total damage to plant, 0=no damage to plant, read-out: plant damage rating, Velvetleaf): 0% | pest or weed control at 250 g/ha ([3]; 250 g ai/ha, read-out: Velvetleaf damage rating (100=total damage to plant; 0=no damage to plant)): 0% | pest or weed control at 15.625 g/ha ([4]; 15.625 g ai/ha, read-out: Barnyard grass damage rating (100=total damage to plant; 0=no damage to plant)): 0% | pest or weed control at 62.5 g/ha ([4]; 62.5 g ai/ha, 100=total damage to plant, 0=no damage to plant, read-out: plant damage rating, Barnyardgrass): 0% | pest or weed control at 250 g/ha ([4]; 250 g ai/ha, read-out: Barnyardgrass damage rating (100=total damage to plant; 0=no damage to plant)): 0% | pest or weed control at 15.625 g/ha ([5]; 15.625 g ai/ha, read-out: Foxtail, Giant damage rating (100=total damage to plant; 0=no damage to plant)): 0% | pest or weed control at 62.5 g/ha ([5]; 62.5 g ai/ha, 100=total damage to plant, 0=no damage to plant, read-out: plant damage rating, Foxtail, Giant): 0% | pest or weed control at 250 g/ha ([5]; 250 g ai/ha, read-out: Foxtail, Giant damage rating (100=total damage to plant; 0=no damage to plant)): 0% | plant injury at 15.625 g/ha (corn (Zea mays) [6]; 15.625 g ai/ha, read-out: Corn damage rating (100=total damage to plant; 0=no damage to plant)): 0% | plant injury at 62.5 g/ha (corn (Zea mays) [6]; 62.5 g ai/ha, 100=total damage to plant, 0=no damage to plant, read-out: plant damage rating, Corn): 0% | plant injury at 250 g/ha (corn (Zea mays) [6]; 250 g ai/ha, read-out: Corn damage rating (100=total damage to plant; 0=no damage to plant)): 0% | pest or weed control at 15.625 g/ha ([7]; 15.625 g ai/ha, evaluated after 13 days (100=total damage to plant; 0=no damage to plant), read-out: Morningglory, Ivy-leaved damage rating): 0% | pest or weed control at 62.5 g/ha ([7]; 62.5 g ai/ha, evaluated after 13 days, read-out: Morningglory, Ivy-leaved damage rating (100=total damage to plant; 0=no damage to plant)): 0% | pest or weed control at 250 g/ha ([7]; 250 g ai/ha, evaluated after 13 days, read-out: damage to plant, Morningglory, Ivy-leaved (100=total damage to plant; 0=no damage to plant)): 0% | pest or weed control at 15.625 g/ha ([8]; 15.625 g ai/ha, evaluated after 13 days (100=total damage to plant; 0=no damage to plant), read-out: Pigweed, Redroot damage rating): 0% | pest or weed control at 62.5 g/ha ([8]; 62.5 g ai/ha, evaluated after 13 days, read-out: Pigweed, Redroot damage rating (100=total damage to plant; 0=no damage to plant)): 0% | pest or weed control at 250 g/ha ([8]; 250 g ai/ha, evaluated after 13 days, read-out: damage to plant, Pigweed, Redroot (100=total damage to plant; 0=no damage to plant)): 0% | pest or weed control at 15.625 g/ha ([9]; 15.625 g ai/ha, evaluated after 13 days (100=total damage to plant; 0=no damage to plant), read-out: Velvetleaf damage rating): 0% | pest or weed control at 62.5 g/ha ([9]; 62.5 g ai/ha, evaluated after 13 days, read-out: Velvetleaf damage rating (100=total damage to plant; 0=no damage to plant)): 0% | pest or weed control at 250 g/ha ([9]; 250 g ai/ha, evaluated after 13 days, read-out: damage to plant, Velvetleaf (100=total damage to plant; 0=no damage to plant)): 0% | pest or weed control at 15.625 g/ha ([10]; 15.625 g ai/ha, evaluated after 13 days (100=total damage to plant; 0=no damage to plant), read-out: Barnyardgrass damage rating): 0% | pest or weed control at 62.5 g/ha ([10]; 62.5 g ai/ha, evaluated after 13 days, read-out: Barnyardgrass damage rating (100=total damage to plant; 0=no damage to plant)): 20% | pest or weed control at 250 g/ha ([10]; 250 g ai/ha, evaluated after 13 days, read-out: damage to plant, Barnyardgrass (100=total damage to plant; 0=no damage to plant)): 20% | pest or weed control at 15.625 g/ha ([11]; 15.625 g ai/ha, evaluated after 13 days (100=total damage to plant; 0=no damage to plant), read-out: Foxtail, Giant damage rating): 0% | pest or weed control at 62.5 g/ha ([11]; 62.5 g ai/ha, evaluated after 13 days, read-out: Foxtail, Giant damage rating (100=total damage to plant; 0=no damage to plant)): 0% | pest or weed control at 250 g/ha ([11]; 250 g ai/ha, evaluated after 13 days, read-out: damage to plant, Foxtail, Giant (100=total damage to plant; 0=no damage to plant)): 30% | plant injury at 15.625 g/ha (corn (Zea mays) [12]; 15.625 g ai/ha, evaluated after 13 days (100=total damage to plant; 0=no damage to plant), read-out: Corn damage rating): 0% | plant injury at 62.5 g/ha (corn (Zea mays) [12]; 62.5 g ai/ha, evaluated after 13 days, read-out: Corn damage rating (100=total damage to plant; 0=no damage to plant)): 10% | plant injury at 250 g/ha (corn (Zea mays) [12]; 250 g ai/ha, evaluated after 13 days, read-out: damage to plant, Corn (100=total damage to plant; 0=no damage to plant)): 0%
